# Laboratory results taken from US20190030036A1, “PHOSPHODIESTERASE INHIBITOR TREATMENT” (Cyrano Therapeutics, Inc., priority 2013, published 2019).
# Tests used:
# [1] = system: cGMP; assay: Parotid saliva cGMP after oral theophylline (Example 2); format: in vivo, human; settings: for saliva cGMP levels over initial values: improved patients; for cGMP: parotid saliva
# Protocol: Parotid saliva was collected from each patient by application of a Lashley cup over Stensen's duct with lingual stimulation by placement of concentrated lemon juice. Saliva was collected in plastic tubes and stored at −20° C. until assayed. cAMP and cGMP were measured in saliva by a sensitive 96 plate spectrophotometric assay (R&D Systems, Minneapolis, Minn.).
# All patients were placed in a fixed design open label clinical trial with treatment with oral theophylline. Treatment consisted of fixed treatment periods of two-eight months with sequential doses of the drug at 200 mg, 400 mg and 600 mg. At termination of each of these intervals, patients returned to study site for reevaluation. At the end of each interval subjective responses to treatment were measured with a modification of the 0-100 scale previously used. Subjective responses to treatment were graded on a sliding scale from −100−0-+100 with patients recording improvement (+0-+100), no improvement (0) or worsening (0-−100) of their overall smell function. If overall smell function improved ≥5% they were considered to improve clinically (1). If smell function improved <5% they were considered not to improve (1). At the end of each interval subjective measurements of smell function, measurements of DT, RT, ME and H and measurements of parotid saliva for levels of cAMP and cGMP were obtained. In addition, blood plasma was obtained by venipuncture, placed in ice into zinc free tubes which contained 100 mg zinc free heparin, centrifuged at 3000 rpm for 10-20 min, the plasma transferred to plastic PCR tubes and stored at −20° C. until assayed. Theophylline was assayed by a fluorescence polarization assay (Abbott, Chicago, Ill.), as previously described.
# Data for the cyclic nucleotides from these 31 patients was not analyzed until the entire study of the 312 patients in Example 1 was assembled and analyzed in its entirety. After completion of these analyses, all data for parotid saliva cAMP and cGMP from all patients in whom salivary cAMP and cGMP were obtained were assembled. Levels of salivary cyclic nucleotides varied widely. Initially, without external criteria, there was no way to understand these disparate data. […] In a similar manner, measurements of each patient's plasma theophylline level at each dosage of theophylline (at 200 mg, 400 mg, 600 mg of theophylline) were categorized. The two patient groups were also analyzed post hoc with respect to type of smell loss and etiology of smell loss.
# [2] = system: patients with hyposmia; assay: Side effects of intranasal theophylline (Example 7); format: in vivo, human; settings: intranasal theophylline 20 μg per naris once a day
# Text: Ten hyposmia patients were enrolled in the study; eight patients have completed all four phases of the study with the remaining two patients still in process.
# [3] = Body weight (Example 8); format: in vivo, human
smiles,measurement,setting,value
Cn1c(=O)c2[nH]cnc2n(C)c1=O [theophylline],saliva cGMP levels over initial values,[1]; oral theophylline 400 mg,275%
same,saliva cGMP levels over initial values,[1]; oral theophylline 600 mg,338%
same,cGMP,"[1]; oral theophylline 200 mg, patients with improved smell function (15)",0.08 ± 0.016 pmol/mL
same,cGMP,"[1]; oral theophylline 200 mg, patients with unimproved smell function (9)",0.07 ± 0.018 pmol/mL
same,cGMP,"[1]; oral theophylline 400 mg, patients with unimproved smell function (4)",0.05 ± 0.014 pmol/mL
same,cGMP,"[1]; oral theophylline 600 mg, patients with unimproved smell function (5)",0.04 ± 0.07 pmol/mL
same,side effects of intranasal use,[2],No side effects
same,mean (SEM) weight increase from pretreatment values,[3]; intranasal theophylline 20 μg/d in each naris,2.5 (0.5) kg
same,mean (SEM) weight increase from pretreatment values,[3]; oral theophylline 200 to 800 mg/d,1.5 (0.4) kg
same,mean serum theophylline level,during intranasal theophylline 20 μg/d in each naris,0.0 (0.0)
same,mean (SEM) serum theophylline level,"human, in vivo, po",6.4 (2.0) mg/L
